# According to US20260092060A1, “IS[…] ANALOGS OF 2-BROMO-LSD, LSD, ALD-52, AND 1P-LSD” (priority 2021, published 2026):
# Structures can show the parent of a compound that is named as a salt.
# Test: in vitro
# Settings: for differences in half-life and intrinsic clearance compared to 2-Br-LSD: human liver microsomes, significant = 15% or more increase in half-life, CLint ratio >1.15 or <0.85; for CLint / T1/2: pooled liver microsomes 0.5 mg/mL protein, test compound 1 μM, NADPH 1 mM, 37° C., 0-45 min, LC-MS/MS; for half-life / microsomal CLint: pH 7.4
# Protocol: Test compound (1 μM) was incubated with pooled liver microsomes.
# Pooled liver microsomes were purchased from a reputable commercial supplier. Microsomes were stored at −80° C. prior to use.
# A minus cofactor control incubation was included for each compound tested where 0.1 M phosphate buffer pH 7.4 was added instead of NADPH (minus NADPH). Two control compounds were included with each species. All incubations were performed singularly for each test compound.
# The reactions were stopped by transferring incubate into acetonitrile at the appropriate time points, in a 1:3 ratio. The termination plates were centrifuged at 3,000 rpm for 20 min at 4° C. to precipitate the protein.
# Following protein precipitation, the sample supernatants were combined in cassettes of up to 4 compounds, internal standard was added and samples analyzed using generic LCMS/MS conditions.
# From a plot of ln peak area ratio (compound peak area/internal standard peak area) against time, the gradient of the line was determined. Subsequently, half-life and intrinsic clearance were calculated using the equations below: […]
# Relevant control compounds were assessed, ensuring intrinsic clearance values fell within the specified limits (if available). Any failures were rejected and the assay repeated. The intrinsic clearance (CLint) of the test compound and t ½ were returned.
SMILES,differences in half-life and intrinsic clearance compared to 2-Br-LSD,CLint [μL/min/mg protein],T1/2 [h],"half-life (human, microsomes) [h]","microsomal CLint (human, microsomes) [µL/min/mg]","differences in half-life and intrinsic clearance compared to LSD (human, microsomes)"
"[2H]c1c([2H])c2c3c(c(Br)[nH]c3c1[2H])C[C@@H]1C2=C[C@@H](C(=O)N(CC)CC)CN1C [Compound 1, (6aR,9R)-5-Bromo-N,N-diethyl-7-methyl-4,6,6a,7,8,9-hexahydroindolo[4,3-fg]quinoline-9-carboxamide-1,2,3-d3 formate]",differences,52.6,0.438,–,–,–
"[2H]C([2H])([2H])N1C[C@H](C(=O)N(CC)CC)C=C2c3cccc4[nH]c(Br)c(c34)C[C@H]21 [Compound 2, (6aR,9R)-5-bromo-N,N-diethyl-7-(methyl-d3)-4,6,6a,7,8,9-hexahydroindolo[4,3-fg]quinoline-9-carboxamide]",differences,49.4,0.468,–,–,–
"CCN(CC)C(=O)[C@@H]1C=C2c3cccc4[nH]c(Br)c(c34)C[C@H]2N(C)C1 [Compound 2-Br-LSD, 2-Bromolysergic acid diethylamide, reference compound]",–,56.3,0.41,–,–,–
"[2H]C([2H])([2H])C([2H])([2H])N(C(=O)[C@@H]1C=C2c3cccc4[nH]c(Br)c(c34)C[C@H]2N(C)C1)C([2H])([2H])C([2H])([2H])[2H] [Compound 7, (6aR,9R)-5-bromo-N,N-bis(ethyl-d5)-7-methyl-4,6,6a,7,8,9-hexahydroindolo[4,3-fg]quinoline-9-carboxamide]",–,44.6,0.518,–,–,–
"[2H]C([2H])([2H])N1C[C@H](C(=O)N(C([2H])([2H])C([2H])([2H])[2H])C([2H])([2H])C([2H])([2H])[2H])C=C2c3cccc4[nH]c(Br)c(c34)C[C@H]21 [Compound 9, (6aR,9R)-5-bromo-N,N-bis(ethyl-d5)-7-(methyl-d3)-4,6,6a,7,8,9-hexahydroindolo[4,3-fg]quinoline-9-carboxamide trifluoroacetate-d]",–,38.8,0.595,–,–,–
"[2H]c1[nH]c2cccc3c2c1C[C@@H]1C3=C[C@@H](C(=O)N(CC)CC)CN1C [Compound 41, (6aR,9R)-N,N-diethyl-7-methyl-4,6,6a,7,8,9-hexahydroindolo[4,3-fg]quinoline-9-carboxamide-4,5-d trifluoroacetate-d]",–,17.8,1.3,–,–,–
"[2H]c1[nH]c2c([2H])c([2H])c([2H])c3c2c1C[C@@H]1C3=C[C@@H](C(=O)N(CC)CC)CN1C [Compound 45, (6aR,9R)-N,N-diethyl-7-methyl-4,6,6a,7,8,9-hexahydroindolo[4,3-fg]quinoline-9-carboxamide-1,2,3,5-d4 triflate-d]",–,16.7,1.38,–,–,–
"[2H]C([2H])([2H])C([2H])([2H])N(C(=O)[C@@H]1C=C2c3cccc4[nH]cc(c34)C[C@H]2N(C)C1)C([2H])([2H])C([2H])([2H])[2H] [Compound 47, (6aR,9R)-N,N-Bis(ethyl-d5)-7-methyl-4,6,6a,7,8,9-hexahydroindolo[4,3-fg]quinoline-9-carboxamide]",–,17.2,1.35,–,–,–
"[2H]C([2H])([2H])N1C[C@H](C(=O)N(C([2H])([2H])C([2H])([2H])[2H])C([2H])([2H])C([2H])([2H])[2H])C=C2c3cccc4[nH]cc(c34)C[C@H]21 [Compound 50, (6aR,9R)-N,N-bis(ethyl-d5)-7-(methyl-d3)-4,6,6a,7,8,9-hexahydroindolo[4,3-fg]quinoline-9-carboxamide trifluoroacetate-d]",–,–,–,1.61,14.3,–
"[2H]c1[nH]c2cccc3c2c1C[C@@H]1C3=C[C@@H](C(=O)N(C([2H])([2H])C([2H])([2H])[2H])C([2H])([2H])C([2H])([2H])[2H])CN1C [Compound 55, (6aR,9R)-N,N-Bis(ethyl-d5)-7-methyl-4,6,6a,7,8,9-hexahydroindolo[4,3-fg]quinoline-9-carboxamide-5-d trifluoroacetate-d]",–,–,–,1.39,16.6,–
"[2H]c1[nH]c2c([2H])c([2H])c([2H])c3c2c1C[C@@H]1C3=C[C@@H](C(=O)N(C([2H])([2H])C([2H])([2H])[2H])C([2H])([2H])C([2H])([2H])[2H])CN1C [Compound 67, (6aR,9R)-N,N-Bis(ethyl-d5)-7-methyl-4,6,6a,7,8,9-hexahydroindolo[4,3-fg]quinoline-9-carboxamide-1,2,3,5-d4 triflate-d]",–,–,–,2,11.5,significant differences
"CCN(CC)C(=O)[C@@H]1C=C2c3cccc4[nH]cc(c34)C[C@H]2N(C)C1 [LSD, Lysergic acid diethylamide, reference compound]",–,–,–,1.42,16.3,–
"COc1ccc2c(c1)[C@]13CCCC[C@@H]1[C@H](C2)N(C)CC3 [dextromethorphan, reference compound]",–,–,–,–,46.8,–
